Source: patent publication US20100108086A1, “TOBACCO AND TOBACCO PACKAGING MATERIAL FOR PREVENTING OR REDUCING TOBACCO-ASSOCIATED INJURY IN THE AERODIGESTIVE TRACT OF A SUBJECT” (Technion Research & Development Foundation Ltd, priority 2007, published 2010)

How the values were obtained:
oral peroxidase (OPO) = experiment: Oral peroxidase (OPO) activity in saliva, NBS-SCN assay; assay type: biochemical, human; details: for OPO activity in presence of aldehydes present in TS: 80 μM acrolein, 20 μM crotonaldehyde (FIG. 11)
lymphocytes [1] = experiment: Lymphocyte survival, Trypan Blue exclusion assay; assay type: cell-based, human; details: for death rates at 80 minutes / lymphocyte survival rates after 20 minutes: both, human; for % survival of TS + saliva-treated lymphocytes, Mean: 1 mM GSH
Method: Saliva collection: Saliva was collected from healthy subjects, 3 males and 3 females ranging from 21-47 years of age, under non-stimulatory conditions in a quiet room during the morning between 8 am and noon. Saliva collection was performed at least 1 h after eating by spitting into a recipient for 10 minutes, as previously described (43). Following collection, saliva was immediately centrifuged at 800×g for 10 min at 4° C. to remove cells and cell debris and the resulting supernatant was used for biochemical analyses.
(§1) Lymphocyte isolation: Blood from 10 consenting, healthy, non-smoking subjects, 5 males and 5 females ranging from 18-55 years of age, was drawn into EDTA-containing vacutainers. Lymphocytes were isolated by Ficoll-Hypaque (Sigma) gradient centrifugation according to the manufacturer's instructions and lymphocytes were suspended at 10^7 cells/ml PBS (Beit-Ha'emek Industries, Israel), and used immediately in experiments.
(§2) A reproducible vacuum was created in the flask and upon application of vacuum for 5 s, 80-100 ml of TS from the lit cigarette was drawn into the flask. […] Saliva treatment of lymphocytes was performed by suspending these in PBS supplemented with 30% (v/v) saliva. Following treatment with the TS of 0.5 cigarettes, flasks were incubated at 37° C. for 20 min in a metabolic shaker and subjected to a further 4 treatments with TS, as described above.
Measurement of lymphocyte survival: Lymphocyte viability was assessed by Trypan Blue exclusion assay.

lymphocytes [2] = experiment: Western immunoblotting analysis of lymphocyte protein carbonylation; assay type: cell-based, human
Source text: Western immunoblotting analysis of protein carbonylation: Salivary proteins were separated by SDS-PAGE using a 10% gel and electro-blotted onto nitrocellulose membranes, as previously described (14). The Oxyblot Kit (Intergen Co, Purchase N.Y.) was used with anti-dinitrophenyhydrazine (DNPH) antibodies to label carbonylated proteins. Protein carbonylation levels were then visualized by reacting labelled blots with a secondary HRP-conjugated anti-rabbit antibody followed by ECL detection of secondarily labelled proteins, as previously described (14).
as §1
as §2, with “Treatment of lymphocytes with TS in the presence of saliva: Exposure of lymphocytes to TS was carried out by attaching a Time cigarette (capable of removing particles>[…] in diameter) in which the filter tip was removed to a Cambridge filter which was combined with a vacuum system to aspirate gas-phase TS inside sealed 250 ml flasks containing lymphocytes suspended in 12-15 ml PBS, as previously described (14, 15). A” for “A”
Western immunoblotting analysis of lymphocyte protein carbonylation: Lymphocytes were washed twice in PBS following treatment by centrifugation at 2,000 rpm for 2 minutes to remove saliva and other components of the incubation medium. Lymphocytes were then centrifuged at 14,000 rpm for 1 minute and lysed by sonication for 10 seconds in lysis buffer containing 20 mM Tris pH 7.4, 1 mM EGTA, 1 mM PMSF, 50 μM NaVO4 and 50 mM NaF. Lysates were centrifuged at 14,000 rpm for 1 minute and supernatants were harvested for analysis. Carbonylation analysis was performed as described above.

MPO = molecular target: T1, MPO (Homo sapiens, UniProt P05164); experiment: Control MPO activity (commercial MPO) in presence of dapsone; assay type: biochemical; details: 150 μM dapsone
T1 construct: purchased
T1 sequence (P05164 49-745): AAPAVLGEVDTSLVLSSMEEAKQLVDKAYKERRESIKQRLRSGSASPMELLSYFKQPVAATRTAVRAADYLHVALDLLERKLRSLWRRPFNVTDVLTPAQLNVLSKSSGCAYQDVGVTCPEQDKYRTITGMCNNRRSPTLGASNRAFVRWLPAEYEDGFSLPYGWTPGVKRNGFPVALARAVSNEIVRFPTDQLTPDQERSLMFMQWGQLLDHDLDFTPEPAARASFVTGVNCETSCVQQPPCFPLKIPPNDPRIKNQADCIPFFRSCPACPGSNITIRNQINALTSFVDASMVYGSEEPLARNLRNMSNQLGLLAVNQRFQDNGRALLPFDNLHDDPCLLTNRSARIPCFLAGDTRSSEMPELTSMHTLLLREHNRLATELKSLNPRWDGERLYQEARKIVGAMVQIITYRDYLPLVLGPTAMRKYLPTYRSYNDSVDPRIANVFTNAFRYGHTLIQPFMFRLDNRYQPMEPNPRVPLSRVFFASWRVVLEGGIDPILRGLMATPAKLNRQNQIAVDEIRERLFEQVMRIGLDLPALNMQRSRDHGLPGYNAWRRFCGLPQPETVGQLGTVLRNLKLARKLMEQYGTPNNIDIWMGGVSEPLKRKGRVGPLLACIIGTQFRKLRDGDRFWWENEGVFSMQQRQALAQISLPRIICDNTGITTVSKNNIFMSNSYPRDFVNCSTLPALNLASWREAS
Method: FIG. 7 is a data plot depicting the effect of increasing concentrations of dapsone (4-aminophenylsulfone) on OPO activity in TS-treated saliva. Abbreviations: NO.1, NO.2, NO.3, NO4 and NO.5 correspond to saliva from 5 different subjects and plasma corresponds to commercial MPO.
Analysis of OPO activity: OPO activity was measured according to the 2-nitrobenzoic-thiocyanate (NBS-SCN) assay, as previously described (20). Briefly, DTNB is reduced to NBS by addition of β-mercaptoethanol and decreases in NBS concentration by reaction with OSCN^−, a product of OPO, are monitored spectrophotometrically by measuring absorbance at 412 nm at pH 5.6 (18). One unit of enzyme activity was defined as the activity required to cleave 1 μmol of NBS/min at 22° C., using a molar extinction coefficient of 12,800 (20).
Thus, in order to determine which of the MPO or SPO activity components of OPO activity are lost as a result of exposure to TS, OPO activity in TS-treated saliva was measured in the presence of increasing concentrations of […] dapsone.

[3] = TS + saliva, 1 mM agent, 80 minutes (FIG. 19)

In the case of `N#C[S-].[K+]` [KSCN, potassium thiocyanate], the “protection against TS-induced loss of OPO activity” value (oral peroxidase (OPO)) was “significant protection against loss of OPO activity”.

`CC(=O)N(O)CCCCCNC(=O)CCC(=O)N(O)CCCCCNC(=O)CCC(=O)N(O)CCCCCN` [deferoxamine] was tested, and the lymphocyte survival rate (lymphocytes [1]; [3]) was 23.7%.

In the case of `C/C=C/C=O` [crotonaldehyde], the “OPO activity in presence of aldehydes present in TS” value (oral peroxidase (OPO)) was “unaffected”, the “death rates at 80 minutes” value (lymphocytes [1]) was 75.3% and the “lymphocyte survival rates after 20 minutes” value (lymphocytes [1]) was 80.3%.

For `C=CC=O` [acrolein], the “OPO activity in presence of aldehydes present in TS” value (oral peroxidase (OPO)) was “unaffected”, the lymphocyte survival rate (lymphocytes [1]; acrolein with saliva (second of the two 'respectively' values, order presumed)) was 66.4% and the lymphocyte survival rate (lymphocytes [1]; acrolein without saliva (first of the two 'respectively' values, order presumed)) was 57.9%. The “death rates at 80 minutes” value (lymphocytes [1]) was 57.3%, the “lymphocyte survival rates after 20 minutes” value (lymphocytes [1]) was 63.3% and the “lymphocyte protein carbonylation levels” value (lymphocytes [2]; 80 μM acrolein + saliva vs acrolein alone, 20 min (FIG. 22)) was “did not enhance carbonylation levels”.

With `CC=O` [acetaldehyde] the “death rates at 80 minutes” value (lymphocytes [1]) was 92.7%.

With `C/C1=C2/[N-][C@H]([C@H](CC(N)=O)[C@@]2(C)CCC(=O)NC[C@@H](C)OP(=O)([O-])O[C@H]2[C@@H](O)[C@@H](n3cnc4cc(C)c(C)cc43)O[C@@H]2CO)[C@]2(C)N=C(/C(C)=C3N=C(/C=C4N=C1[C@@H](CCC(N)=O)C\4(C)C)[C@@H](CCC(N)=O)[C@]\3(C)CC(N)=O)[C@@H](CCC(N)=O)[C@]2(C)CC(N)=O.[Co+3].[OH-]` [OH—CO, hydroxocobalamin] the “prevention of KCN-associated loss of OPO activity” value (oral peroxidase (OPO); 1 mM OH—CO, saliva treated 2 min with 1 mM KCN (FIG. 15)) was “completely prevent”, the “prevention of loss of OPO activity in TS-treated saliva” value (oral peroxidase (OPO); increasing amounts of OH—CO (0.5, 1, 2 mM, FIG. 14), 40 min after treatment with TS) was “prevent, to a significant extent, the loss of OPO activity” and the “prevention of TS- and KCN-associated loss of OPO activity” value (oral peroxidase (OPO); preincubation of saliva with OH—CO) was “could prevent both TS- and KCN-associated loss of OPO activity”.

With `Nc1ccc(S(=O)(=O)c2ccc(N)cc2)cc1` [dapsone, 4-aminophenylsulfone] the “Loss of OPO activity” value (oral peroxidase (OPO); 150 μM dapsone, TS-treated saliva (FIG. 7)) was 60-85%, the “loss of OPO activity in the presence or absence of agent” value (oral peroxidase (OPO); 150 μM dapsone, TS-treated saliva containing ~40% MPO (FIG. 8)) was “similar” and the “control MPO activity” value (MPO) was “unaffected”.

`O=c1[nH]c(=O)c2[nH]c(=O)[nH]c2[nH]1` [uric acid] was tested, and the “lymphocyte protein carbonylation levels” value (lymphocytes [2]; uric acid added to suspension medium instead of saliva, 10 or 100 μM, no TS (FIG. 18)) was “reduced carbonylation levels”.

In the case of `CC(=O)N[C@@H](CS)C(=O)O` [NAC, N-acetylcysteine], the “effect on death rate of lymphocytes exposed to TS and saliva” value (lymphocytes [1]) was “did not alter the death rate”.

Compound `O=C1O[C@H]([C@@H](O)CO)C(O)=C1O` [ascorbate] has a lymphocyte survival rate (lymphocytes [1]; ascorbate (1 mM) added to PBS containing iron as FeCl3 (90 μM), no saliva (FIG. 23, Column 8)) of 77% and a lymphocyte survival rate (lymphocytes [1]; ascorbate (1 mM) added to saliva-containing medium without TS, 20 min (FIG. 23, column 6)) of 78%.

For `N[C@@H](CCC(=O)N[C@@H](CS)C(=O)NCC(=O)O)C(=O)O` [GSH, L-γ-glutamyl-1-cysteine-glycine], the “loss of OPO activity in TS-treated saliva in the presence or absence of agent” value (oral peroxidase (OPO); 1 mM agent (FIG. 9)) was “similar”, the “effect on death rate of lymphocytes exposed to TS and saliva” value (lymphocytes [1]) was “partially prevented” and the “% survival of TS + saliva-treated lymphocytes, Mean” value (lymphocytes [1]; 20 minute treatment) was 90.6%. For the same compound, the “% survival of TS + saliva-treated lymphocytes, Mean” value (lymphocytes [1]; 80 minute treatment) was 28.8%, the lymphocyte survival rate (lymphocytes [1]; GSH added in the presence of 20 μM crotonaldehyde, 20 minutes) was 82.3% and the lymphocyte survival rate (lymphocytes [1]; GSH added in the presence of 20 μM crotonaldehyde, 80 minutes) was 81.3%. The lymphocyte survival rate (lymphocytes [1]; GSH added in the presence of 80 μM acrolein, 20 minutes) was 93.3%, the lymphocyte survival rate (lymphocytes [1]; GSH added in the presence of 80 μM acrolein, 80 minutes) was 87.4% and the lymphocyte survival rate (lymphocytes [1]; GSH added in the presence of 2 mM acetaldehyde, 20 minutes) was 93.3%. The lymphocyte survival rate (lymphocytes [1]; GSH added in the presence of 2 mM acetaldehyde, 80 minutes) was 93.6%, the lymphocyte survival rate (lymphocytes [1]; TS + saliva, 1 mM agent, 20 minutes (FIG. 19)) was 93.4% and the lymphocyte survival rate (lymphocytes [1]; [3]) was 24.3%. The “protection assessed by lymphocyte protein carbonylation levels” value (lymphocytes [2]; TS + saliva, 1 mM antioxidant, 20 minutes (FIG. 20)) was “unique protection” and the “protein carbonylation levels in aldehyde-treated lymphocytes” value (lymphocytes [2]; aldehydes + 1 mM GSH, 20 min (FIG. 21)) was “protection”.

With `[Cl][Fe]([Cl])[Cl]` [FeCl3] the “inhibition of OPO activity on exposure of saliva” value (oral peroxidase (OPO); 1 mM ascorbate or 100 μM FeCl3, 2 h (FIG. 10)) was “did not inhibit OPO activity”.
